Measured values: the supplement of paper PMC10307832

Legend:
Assay in all cases: relative viability (nuclei count vs DMSO), 5 days (fraction); higher = more cells survive
EKVX = test system: EKVX
How it was run: (§1)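 Lung cancer cell lines, seeded in 1536-well plates, were treated the following day by pin tool with a single drug or with five library-drug doses (not always all listed) in √10 steps on top of a fixed anchor-drug dose. Cells were fixed and nuclei stained in one step after 5 days, and nuclei were counted. Relative viability is the nuclei count for treated wells divided by that for vehicle wells, reported as medians of duplicate plates.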

LCLC-97TM1 = test system: LCLC-97TM1
How it was run: as §1

NCI-H1437 = test system: NCI-H1437
How it was run: as §1

NCI-H1650 = test system: NCI-H1650
How it was run: as §1

NCI-H1666 = test system: NCI-H1666
How it was run: as §1

NCI-H1792 = test system: NCI-H1792
How it was run: as §1

NCI-H1915 = test system: NCI-H1915
How it was run: as §1

NCI-H1975 = test system: NCI-H1975
How it was run: as §1

NCI-H2342 = test system: NCI-H2342
How it was run: as §1

NCI-H23 = test system: NCI-H23
How it was run: as §1

NCI-H322M = test system: NCI-H322M
How it was run: as §1

NCI-H358 = test system: NCI-H358
How it was run: as §1

NCI-H441 = test system: NCI-H441
How it was run: as §1

NCI-H460 = test system: NCI-H460
How it was run: as §1

NCI-H520 = test system: NCI-H520
How it was run: as §1

NCI-H522 = test system: NCI-H522
How it was run: as §1

NCI-H596 = test system: NCI-H596
How it was run: as §1

NCI-H647 = test system: NCI-H647
How it was run: as §1

NCI-H661 = test system: NCI-H661
How it was run: as §1

NCI-H838 = test system: NCI-H838
How it was run: as §1

PC-3 [JPC-3] = test system: PC-3 [JPC-3]
How it was run: as §1

SK-LU-1 = test system: SK-LU-1
How it was run: as §1

Cc1csc(=NC2CCCCC2)n1/N=C/c1ccc(O)c(O)c1O [MIM1] + Nc1nc2[nH]cc(CCc3ccc(C(=O)N[C@@H](CCC(=O)O)C(=O)O)cc3)c2c(=O)[nH]1 [Pemetrexed] (partner 0.2 µM)
relative viability (EKVX; first compound 0.2 µM): 0.374
relative viability (EKVX; first compound 0.6325 µM): 0.392
relative viability (EKVX; first compound 2 µM): 0.318
relative viability (EKVX; first compound 6.325 µM): 0.287
relative viability (EKVX; first compound 20 µM): 0.29
relative viability (LCLC-97TM1; first compound 0.2 µM): 0.147
relative viability (LCLC-97TM1; first compound 0.6325 µM): 0.142
relative viability (LCLC-97TM1; first compound 2 µM): 0.167
relative viability (LCLC-97TM1; first compound 6.325 µM): 0.172
relative viability (LCLC-97TM1; first compound 20 µM): 0.054
relative viability (NCI-H1437; first compound 0.2 µM): 0.29
relative viability (NCI-H1437; first compound 0.6325 µM): 0.317
relative viability (NCI-H1437; first compound 2 µM): 0.348
relative viability (NCI-H1437; first compound 6.325 µM): 0.235
relative viability (NCI-H1437; first compound 20 µM): 0.154
relative viability (NCI-H1650; first compound 0.2 µM): 0.341
relative viability (NCI-H1650; first compound 0.6325 µM): 0.393
relative viability (NCI-H1650; first compound 2 µM): 0.363
relative viability (NCI-H1650; first compound 6.325 µM): 0.191
relative viability (NCI-H1650; first compound 20 µM): 0.202
relative viability (NCI-H1666; first compound 0.2 µM): 0.853
relative viability (NCI-H1666; first compound 0.6325 µM): 0.848
relative viability (NCI-H1666; first compound 2 µM): 0.826
relative viability (NCI-H1666; first compound 6.325 µM): 0.666
relative viability (NCI-H1666; first compound 20 µM): 0.627
relative viability (NCI-H1792; first compound 0.2 µM): 0.682
relative viability (NCI-H1792; first compound 0.6325 µM): 0.644
relative viability (NCI-H1792; first compound 2 µM): 1.02
relative viability (NCI-H1792; first compound 6.325 µM): 0.716
relative viability (NCI-H1792; first compound 20 µM): 0.685
relative viability (NCI-H1915; first compound 0.2 µM): 0.501
relative viability (NCI-H1915; first compound 0.6325 µM): 0.42
relative viability (NCI-H1915; first compound 2 µM): 0.487
relative viability (NCI-H1915; first compound 6.325 µM): 0.329
relative viability (NCI-H1915; first compound 20 µM): 0.335
relative viability (NCI-H1975; first compound 0.2 µM): 0.289
relative viability (NCI-H1975; first compound 0.6325 µM): 0.317
relative viability (NCI-H1975; first compound 2 µM): 0.28
relative viability (NCI-H1975; first compound 6.325 µM): 0.223
relative viability (NCI-H1975; first compound 20 µM): 0.187
relative viability (NCI-H2342; first compound 0.2 µM): 0.719
relative viability (NCI-H2342; first compound 0.6325 µM): 0.768
relative viability (NCI-H2342; first compound 2 µM): 0.75
relative viability (NCI-H2342; first compound 6.325 µM): 0.751
relative viability (NCI-H2342; first compound 20 µM): 0.757
relative viability (NCI-H23; first compound 0.2 µM): 0.667
relative viability (NCI-H23; first compound 0.6325 µM): 0.469
relative viability (NCI-H23; first compound 2 µM): 0.717
relative viability (NCI-H23; first compound 6.325 µM): 0.5
relative viability (NCI-H23; first compound 20 µM): 0.204
relative viability (NCI-H322M; first compound 0.2 µM): 0.614
relative viability (NCI-H322M; first compound 0.6325 µM): 0.58
relative viability (NCI-H322M; first compound 2 µM): 0.558
relative viability (NCI-H322M; first compound 6.325 µM): 0.557
relative viability (NCI-H322M; first compound 20 µM): 0.543
relative viability (NCI-H358; first compound 0.2 µM): 0.181
relative viability (NCI-H358; first compound 0.6325 µM): 0.17
relative viability (NCI-H358; first compound 2 µM): 0.182
relative viability (NCI-H358; first compound 6.325 µM): 0.152
relative viability (NCI-H358; first compound 20 µM): 0.144
relative viability (NCI-H441; first compound 0.2 µM): 0.259
relative viability (NCI-H441; first compound 0.6325 µM): 0.27
relative viability (NCI-H441; first compound 2 µM): 0.256
relative viability (NCI-H441; first compound 6.325 µM): 0.232
relative viability (NCI-H441; first compound 20 µM): 0.159
relative viability (NCI-H460; first compound 0.2 µM): 0.0717
relative viability (NCI-H460; first compound 0.6325 µM): 0.0675
relative viability (NCI-H460; first compound 2 µM): 0.0683
relative viability (NCI-H460; first compound 6.325 µM): 0.0681
relative viability (NCI-H460; first compound 20 µM): 0.0657
relative viability (NCI-H520; first compound 0.2 µM): 0.693
relative viability (NCI-H520; first compound 0.6325 µM): 0.722
relative viability (NCI-H520; first compound 2 µM): 0.752
relative viability (NCI-H520; first compound 6.325 µM): 0.547
relative viability (NCI-H520; first compound 20 µM): 0.306
relative viability (NCI-H522; first compound 0.2 µM): 1.09
relative viability (NCI-H522; first compound 0.6325 µM): 1.31
relative viability (NCI-H522; first compound 2 µM): 0.951
relative viability (NCI-H522; first compound 6.325 µM): 1.01
relative viability (NCI-H522; first compound 20 µM): 0.481
relative viability (NCI-H596; first compound 0.2 µM): 0.608
relative viability (NCI-H596; first compound 0.6325 µM): 0.537
relative viability (NCI-H596; first compound 2 µM): 0.536
relative viability (NCI-H596; first compound 6.325 µM): 0.512
relative viability (NCI-H596; first compound 20 µM): 0.471
relative viability (NCI-H647; first compound 0.2 µM): 0.187
relative viability (NCI-H647; first compound 0.6325 µM): 0.186
relative viability (NCI-H647; first compound 2 µM): 0.178
relative viability (NCI-H647; first compound 6.325 µM): 0.162
relative viability (NCI-H647; first compound 20 µM): 0.117
relative viability (NCI-H661; first compound 0.2 µM): 0.676
relative viability (NCI-H661; first compound 0.6325 µM): 0.908
relative viability (NCI-H661; first compound 2 µM): 0.975
relative viability (NCI-H661; first compound 6.325 µM): 0.651
relative viability (NCI-H661; first compound 20 µM): 0.562
relative viability (NCI-H838; first compound 0.2 µM): 0.244
relative viability (NCI-H838; first compound 0.6325 µM): 0.376
relative viability (NCI-H838; first compound 2 µM): 0.243
relative viability (NCI-H838; first compound 6.325 µM): 0.269
relative viability (NCI-H838; first compound 20 µM): 0.226
relative viability (PC-3 [JPC-3]; first compound 0.2 µM): 1.18
relative viability (PC-3 [JPC-3]; first compound 0.6325 µM): 1.04
relative viability (PC-3 [JPC-3]; first compound 2 µM): 1.14
relative viability (PC-3 [JPC-3]; first compound 6.325 µM): 0.948
relative viability (PC-3 [JPC-3]; first compound 20 µM): 0.485
relative viability (SK-LU-1; first compound 0.2 µM): 0.995
relative viability (SK-LU-1; first compound 0.6325 µM): 1.09
relative viability (SK-LU-1; first compound 2 µM): 0.972
relative viability (SK-LU-1; first compound 6.325 µM): 0.892
relative viability (SK-LU-1; first compound 20 µM): 0.694
